Results from patent US10905656B2, “Methods and compositions for treating arteriosclerotic vascular diseases” (GOLDEN BIOTECHNOLOGY CORPORATION, priority 2012, dated 2021).

Key:
[1] = system: A7r5 cells (rat aortic smooth muscle cells); assay: MTT assay, cytotoxic effect on smooth muscle cells; type: cell-based; details: 0 μg/ml-3 μg/ml, 24 hours
From the text: (§1) MTT assay is commonly used to determine cell proliferation, percent of viable cells, and cytotoxicity. MTT (3[4,5-dimethylthiazol-2-yl]2,5-diphenyltetrazolium bromide) is a yellow dye, which can be absorbed by the living cells and be reduced to purplish blue formazan crystals by succinate tetrazolium reductase in mitochondria. Formazan formation can therefore be used to assess and determine the survival rate of cells. A solubilization solution (usually either dimethyl sulfoxide, an acidified ethanol solution, or a solution of the detergent sodium dodecyl sulfate in diluted hydrochloric acid) is added to dissolve the insoluble purple formazan product into a colored solution. The absorbance of this colored solution can be quantified by measuring at a certain wavelength (usually between 500 and 600 nm) by a spectrophotometer. The more surviving cells, the higher the absorbance. The percentage of cell survival (%)=OD value of experimental group÷OD value of control group×100%. Procedure
1. […]
3. […] The survival rate of cells was calculated based on the measurement of absorption at the 570 nm wavelength by ELISA reader.
(§2) Potential cytotoxicity of Compound 1 to smooth muscle cells was tested. […] As shown in FIGS. 2A/2B, the cytotoxic effect of Compound 1 at different concentrations on smooth muscle cells (A7r5) was determined via MTT assay (FIG. 2A) and LDH assay (FIG. 2B).

[2] = system: A7r5 cells (rat aortic smooth muscle cells); assay: Lactate dehydrogenase (LDH) activity assay, cytotoxicity; type: cell-based; details: 0 μg/ml-3 μg/ml, 24 hours
From the text: Cells have plenty of lactate dehydrogenase (LDH). When cells are healthy, LDH cannot freely cross cell membrane. […] LDH activity in the culture medium is directly proportional to the number of dead cells. The cell viability can be measured quantitatively to detect absorbance by using colorimetric method at a wavelength of 492 nm. The change of the absorbance values come from the fact that LDH catalyzes the conversion of lactate to pyruvate with the concomitant production of NADH. The NADH, in the presence of diaphorase and tetrazolium salt INT, is used to drive the diaphorase-catalyzed production of red formazan product. The present experiment utilizes Cytotoxicity Assay Kit (Promega) to conduct culture medium LDH Quantitation assay.
(§3) 1. Adherence of cells: 2×10^4 cells/ml/well of A7r5 cells were seeded onto a 24-well plate and incubated at 37° C. for 24 hours.
2. Dosing: 500 ul/well different concentrations of compound 1 were formulated in culture medium containing 10% FBS/DMEM and incubated for 24 hours. […]
3. […] Absorbance was measured by ELISA reader at the 490 nm wavelength.
as §2

[3] = system: PDGF-stimulated A7r5 cells; assay: PDGF-stimulated smooth muscle cell proliferation, MTT assay; type: cell-based, Rattus norvegicus; details: 3 μg/ml, 20 hours pretreatment, PDGF 24 hours
From the text: as §1, §3
2. Dosing: 500 ul/well different concentrations of compound 1 were pretreated in culture medium containing 1% FBS/DMEM for 20 hours. […]
3. […] The survival rate of cells was calculated based on the measurement of absorption at the 570 nm wavelength by ELISA reader. […]

[4] = system: PDGF-stimulated A7r5 cells; assay: Wound scratching test, PDGF-stimulated smooth muscle cell migration; type: cell-based, Rattus norvegicus; details: 3 μg/ml, 24 hours
Protocol: 1. A7r5 cells (5×10^6 cells/ml) were seeded onto a 6-well cell culture plate and incubated at 37° C. overnight.
2. 1×PBS was used to wash the wells twice. Compound 1 with different concentrations in DMEM culture medium containing 1% FBS was added and pretreated for 20 hours.
3. A cross-shape acellular space was created by a sterile 200 μl pipette tip and washed twice with 1×PBS.
4. After removing PBS, 2 ml PDGF in DMEM culture medium containing 1% FBS were added. The cells were photographed by a microscope at 0, 6, 12 and 24 hours, respectively from the time of adding PDGF.
The inhibition of Compound 1 on migration of smooth muscle cells (A7r5 cells) was investigated in a wound scratching test by measuring PDGF-stimulated cell migration distance. The PDGF-stimulated cell culture without Compound 1 treatment was used as positive control.

[5] = system: mice with carotid artery ligation; assay: Carotid artery ligation model, neointima formation; type: in vivo, C57BL/6J mice; details: 60 mg/kg body weight oral gavage, from three days before ligation, 28 days; control higher than 3.0; p<0.001
From the text: Arteries are vessels that carry blood away from the heart. The carotid arteries are blood vessels that supply blood to the head, neck and brain. One carotid artery is position on each side of the neck. The right common carotid artery branches from the brachiocephalic artery and extends up the right side of the neck. The left common carotid artery branches from the aorta and extends up the left side of the neck. Each carotid artery branches into internal and external vessels near the top of the thyroid. Following the study by Hsing-Chun Chung (Dissertation, 2008, Southern Taiwan University), the carotid artery ligation was conducted on the left common carotid artery in mice to induce neointimal thickening.
This experiment used 8-week-old C57BL/6J male mice having about 25 g of body weight, which were purchased from National Laboratory Animal Center. These mice were maintained at the Laboratory Animal center of National Defense Medical Center on a 12 hour dark/12 hour light cycle in air conditional rooms (18-26° C., 30%-70% humidity).
1. The animals were given Compound 1 by oral gavage three days prior to the surgery and were continuously fed with Compound 1 for 28 days by oral gavage.
2. […]

LDLR mRNA = LDLR mRNA expression in HepG2 by RT-PCR; type: cell-based, human; details: HepG2, after addition of compound
Protocol: FIG. 10A-B show results of LDLR mRNA expression in HepG2 cell line induced by an exemplary cyclohexenone Compound 1. HepG2 cell line was serum-starved overnight and challenged with 20 μM Compound 1 at indicated time intervals (1A). Cells were then collected and the mRNA expression level of LDLR and GAPDH (internal control) were detected by RT-PCR. The relative expression level of LDLR to GAPDH was quantified by densitometry (1B). Experiments were conducted in triplicate. Bar represented as mean±SEM. * indicates p<0.05 and ** indicates p<0.01.
HepG2 cells were cultured in MEM alpha medium (Invitrogen/Gibco BRL, Grand Island, N.Y., USA). Cells were cultured at 37° C. in 5% CO2 in culture media supplemented with 10% fetal bovine serum (Invitrogen/Gibco BRL) and 100 U/ml streptomycin and penicillin (Invitrogen/Gibco BRL). For treatment, cells were seeded in six-well plates at 6.25×10^5 cells/well. On the following day, the media were changed to serum-free and the cells were serum-starved for 24 h. Compound 1 was dissolved in DMSO and diluted to the required concentration with serum-free medium. Cultures were then treated with diluted Compound 1 for the indicated time periods. […]
LDLR mRNA expression level was quantitative analysis by RT-PCR. […] The PCR products intensity was quantified by densitometry using Image-Pro Plus software (Media Cybernetics, Silver Spring, Md.).

ERK1/2 = ERK1/2 phosphorylation in HepG2 by immunoblot; type: cell-based, human; details: HepG2, 1 h, immunoblot p-ERK1/2
Protocol: FIG. 11A-B show illustrative effective results of the exemplary cyclohexenone Compound 1 stimulates ERK1/2 phosphorylation in HepG2 cell line. (2A), HepG2 cell line was serum-starved overnight and challenged with the indicated concentrations of Compound 1 for 1 h. Whole cell lysates were then immunoblotted with phosphor-ERK1/2 antibody and reprobed with β-actin antibody. Duplicated membrane was probed with ERK1/2 antibody. (2B), the relative expression level of p-ERK1/2 to β-actin was quantified by densitometry. Experiments were conducted in triplicate. Bar represented as mean±SEM.
HepG2 cells were cultured in MEM alpha medium (Invitrogen/Gibco BRL, Grand Island, N.Y., USA). […]
Sixty micrograms of total protein in cell lysate, which was measured using Bradford assay (Sigma-Aldrich, St. Louis, Mo.), was resolved on 12.5% SDS polyacrylamide gels. […] Blots were blocked with 3% BSA and probed with a 1:1,000 dilution of antibodies to phospho-p44/42 (ERK1/2)(Thr202/Tyr204) (Cell Signaling Technology, USA), p44/42MAPK(ERK1/2) (Cell Signaling Technology, USA) or β-actin (Sigma-Aldrich, St. Louis, Mo.), then horse radish-peroxidase (HRP)-conjugated secondary antibody and detected by 3,3′-diaminobenzidine (DAB) substrate kit for peroxidase (Vector Laboratories, Burlingame, Calif.). […]

## COC1=C(OC)C(O)C(C/C=C(\C)CC/C=C(\C)CCC=C(C)C)C(C)C1=O (centres unmarked) [Compound 1, 4-hydroxy-2,3-dimethoxy-6-methyl-5-(3,7,11-trimethyldodeca-2,6,10-trienyl)cyclohex-2-enone]
[1]
  survival rate of cells (MTT assay): cell purification was not affected by the drug treatment
[2]
  cytotoxicity (LDH assay): no cytotoxcity has been observed
[3]
  reduction of PDGF-stimulated smooth muscle cell proliferation: about 50%
[4]
  decrease in PDGF-stimulated smooth muscle cell migration: about 50%
[5]
  average N/M ratio (neointima area/medial area): 1.0
LDLR mRNA
  time at which LDLR mRNA expression was first increased: 2 h
LDLR mRNA; increased up to 6 h
  time at which the LDLR mRNA increase reached a significant level: 4 h
ERK1/2
  concentration enough to induce activation of ERK1/2: 0.5 µM
